This assay has as its system live APC (spleenocytes) from NOD (I-A^g7), BALB/c, A.SW, A.BY mice. The assay can be described thus: Flow cytometry of biotinylated peptide binding to live APC (spleenocytes) of inbred mouse strains. The note with it: for percentage of high-density binding cells: biotinylated peptide 50 μM, overnight; for preferential binding to NOD APC compared with other strains (BALB/c, A.SW, A.BY): biotinylated peptide, live spleenocytes, flow cytometry. The method, then: Specifically, it was verified that the peptide binds to MHC molecules on live APC. Briefly, spleen cell density-gradient fractions (from mice), or PBL, or APC lines (from humans) were incubated in round bottom 96-well plates with increasing concentrations of individual biotinylated peptides at 37° C., 5% CO2 for 16 hours. Following binding of the BPI to the APC, Avidin-FITC was incubated with the cells on ice for 30 minutes, followed by biotinylated anti-Avidin for 1 hour, then again with Avidin-FITC. For BPI titrations, increasing concentrations (0.1-100 μM) of the biotinylated derivatives in sterile 0.5% BSA-PBS were incubated with the APC for 16 hours as above. […] Three-color analyses used Cy-Chrome or PE-conjugated antibodies to known surface markers of APC that were commercially available. Avidin-FITC and biotinylated anti-Avidin detection of the bound peptide was as previously described in Murray et al., 24 Eur. J. Immunol. 2337-2344 (1994); Murray; 19 Immunology Today 157-163; and Schountz et al., 157 The Journal of Immunology 3893-3901 (1996). Slight modifications of this method were used to test peptide inhibition (i.e., peptide affinity) and co-capping to the MHC and ICAM molecules directly on the live APC surface. […] Unlabeled peptide was used in a competition assay to derive the relative affinity of the BPI for the APC and the ability of the BPI to crosslink the MHC and ICAM molecules on the APC was examined by cocapping ICAM with an anti-MHC mAb. Here, cells were incubated with the BPI. Next, an anti-MHC mAb was added. After 30 minutes at 37° C., the cells were transferred to ice and stained with PE-labeled anti-ICAM (FIG. 7).
To obtain biotinylated BPI, the synthesized EGAD BPI was biotinylated with NHS-Biotin as described in Murray et al., 24 Eur. J. Immunol. 2337-2344 (1994). Spleen cell density-gradient fractions from normal (unimmunized) NOD, BALB/c and other MHC congenic strains were incubated in round bottom 96-well plates with increasing concentrations of individual biotinylated peptides at 37° C., 5% CO2 for 16 hours. Following binding of the BPI to the APC, Avidin-FITC was incubated with the cells on ice for 30 minutes, followed bybiotinylated anti-Avidin for 1 hour, then again with Avidin-FITC. For BPI titrations, increasing concentrations (0.1-100 μM) of the biotinylated derivatives in sterile 0.5% BSA-PBS were incubated with the APC for 16 hours as above. Three-color analyses used Cy-Chrome or PE-conjugated anti-B220 (mAb RA3-6B2 (CD45R B-cell marker), anti-MHC class II (KH74 or 10-3.62 mAb), or anti-ICAM-1 (3E2 mAb); (all purchased from PharMingen, San Diego, Calif.). Bound peptide was detected with avidin-FITC/biotinylated anti-avidin/avidin-FITC on live cells gated by forward/side scatter analysis. Controls contained all detecting reagents in absence of the biotinylated peptide; 20,000 events were analyzed for each histogram with a FACScan (Becton-Dickinson) flow cytometer.
To verify antigenic peptide binding to live APC, initial EGAD-BPI were screened for selective binding to NOD (I-A^g7) APC and assayed for simultaneous binding using monoclonal antibodies against either MHC-II or ICAM-1 by flow cytometry methods using live APC (Murray et al., 24 Eur. J. Immunol. 2337-2344 (1994); Murray; 19 Immunology Today 157-163; and Schountz et al., 157 The Journal of Immunology 3893-3901 (1996)). In this assay, increasing concentrations of the biotinylated-BPI, -CD11a(237-247) or -GAD65(208-217) peptide were incubated overnight with spleenocytes from each inbred strain. Bound peptide was detected with amplification of avidin-FITC fluorescence by the use of a biotinylated anti-avidin reagent, followed by a second round of avidin-FITC binding. Biotinylated peptide was incubated with 10^6 viable cells at a peptide concentrations of 50 μM. Bound peptide was detected with avidin-FITC/biotinylated anti-avidin-FITC. […]
On the technique in general: A flow cytometer gives signals particle by particle.

Where no end group is shown, it is not given here. [ ]: non-standard residue; d: D form. Ahx = NCCCCCC(=O)O

As for “GAD65(208-217)-[Ac-G-Ac-G-Ac]-CD11a (237-247) (EIAPVFVLLE[Ahx]G[Ahx]G[Ahx]ITDGEATDSG) [EGAD-BPI]”, the “preferential binding to NOD APC compared with other strains (BALB/c, A.SW, A.BY)” value is on record as “higher density”. For the same substance, the “percentage of high-density binding cells” value (A.BY spleenocytes) is 6%. For the same substance, where the note is “NOD spleenocytes”, the “percentage of high-density binding cells” value worked out at 30%. Also, the “preferential binding to NOD APC compared with other strains (BALB/c, A.SW, A.BY)” value (listed as GAD 65 BPI) is “binds preferentially to NOD APC”.

Values taken from US7786257B2, “Signal-1/signal-2 bifunctional peptide inhibitors” (priority 2000, dated 2010).
